According to patent US8367873B2, “Phenyl-substituted bicyclooctane-1,3-dione derivatives” (Bayer Cropscience AG, priority 2008, dated 2013):

Assays:
Type in all cases: in vivo
[1] = test system: monocotylidonous and dicotylidonous weed and crop plants; experiment: Herbicidal post-emergence action (other test plants); details: post-emergence method; for herbicidal effect against AVEFA (Avena fatua): 80 g/ha; for pest or weed control at 80 g/ha: 504 h, Avena fatua, read-out: herbicidal effect against AVEFA (Avena fatua)
Method: (§1) Seeds of monocotylidonous and dicotylidonous weed and crop plants are placed in sandy loam in wood fibre pots, covered with soil and cultivated in a greenhouse under good growth conditions. Two to three weeks after sowing, the test plants are treated at the one-leaf stage. The test compounds, formulated as wettable powders (WP), are then with a water application rate of 600 l/ha (converted), with 0.2% of wetting agent added, sprayed onto the green parts of the plants in different amounts. After the test plants have been kept in the greenhouse under optimum growth conditions for about three weeks, the effect of the preparations is assessed visually in comparison to untreated controls (herbicidal effect in percent: 100% effect=the plants have died, 0% effect=like control plants).

Setaria viridis = experiment: Herbicidal post-emergence action; details: post-emergence method; for herbicidal effect against SETVI (Setaria viridis): 80 g/ha; for pest or weed control at 80 g/ha: Setaria viridis, 504 h, read-out: herbicidal effect against SETVI (Setaria viridis)
Method: as §1

Alopecurus myosuroides = experiment: Herbicidal post-emergence action; details: post-emergence method; for herbicidal effect against ALOMY (Alopecurus myosuroides): 80 g/ha; for pest or weed control at 80 g/ha: Alopecurus myosuroides, 504 h, read-out: herbicidal effect against ALOMY (Alopecurus myosuroides)
Method: as §1

Echinocloa crus-galli = experiment: Herbicidal post-emergence action; details: post-emergence method; for herbicidal effect against ECHCG (Echinochloa crus-galli): 80 g/ha; for pest or weed control at 80 g/ha: Echinochloa crus-galli, 504 h, read-out: herbicidal effect against ECHCG (Echinochloa crus-galli)
Method: as §1

Lolium multiflorum = experiment: Herbicidal post-emergence action; details: post-emergence method; for herbicidal effect against LOLMU (Lolium multiflorum): 80 g/ha; for pest or weed control at 80 g/ha: Lolium multiflorum, 504 h, read-out: herbicidal effect against LOLMU (Lolium multiflorum)
Method: as §1

CCc1cc(C)cc(CC)c1C1=C(O)C2CC3(CC2C1=O)OCCCS3 (mixture of isomers) [I-a-20]
herbicidal effect against AVEFA (Avena fatua) [1]: 80% | herbicidal effect against SETVI (Setaria viridis) (Setaria viridis): 90% | herbicidal effect against ALOMY (Alopecurus myosuroides) (Alopecurus myosuroides): 90% | herbicidal effect against ECHCG (Echinochloa crus-galli) (Echinocloa crus-galli): 100% | herbicidal effect against LOLMU (Lolium multiflorum) (Lolium multiflorum): 100%

Cc1cc(C)c(C2=C(OC(=O)CC(C)C)C3CC4(COC(C)(C)O4)CC3C2=O)c(C)c1 (mixture of isomers) [I-b-44]
herbicidal effect against AVEFA (Avena fatua) [1]: 80% | herbicidal effect against SETVI (Setaria viridis) (Setaria viridis): 60% | herbicidal effect against ALOMY (Alopecurus myosuroides) (Alopecurus myosuroides): 80% | herbicidal effect against ECHCG (Echinochloa crus-galli) (Echinocloa crus-galli): 80% | herbicidal effect against LOLMU (Lolium multiflorum) (Lolium multiflorum): 100%

COCC(=O)OC1=C(c2c(C)cc(C)cc2C)C(=O)C2CC3(COC(C)(C)O3)CC12 (mixture of isomers) [I-b-47]
herbicidal effect against AVEFA (Avena fatua) [1]: 80% | herbicidal effect against SETVI (Setaria viridis) (Setaria viridis): 0% | herbicidal effect against ALOMY (Alopecurus myosuroides) (Alopecurus myosuroides): 90% | herbicidal effect against ECHCG (Echinochloa crus-galli) (Echinocloa crus-galli): 100% | herbicidal effect against LOLMU (Lolium multiflorum) (Lolium multiflorum): 90%

CCC(=O)OC1=C(c2c(C)cc(C)cc2C)C(=O)C2CC3(COC(C)(C)O3)CC12 (mixture of isomers) [I-b-50]
herbicidal effect against AVEFA (Avena fatua) [1]: 0% | herbicidal effect against SETVI (Setaria viridis) (Setaria viridis): 80% | herbicidal effect against ALOMY (Alopecurus myosuroides) (Alopecurus myosuroides): 100% | herbicidal effect against ECHCG (Echinochloa crus-galli) (Echinocloa crus-galli): 90% | herbicidal effect against LOLMU (Lolium multiflorum) (Lolium multiflorum): 100%

CCOC(=O)OC1=C(c2c(C)cc(C)cc2C)C(=O)C2CC3(CC12)OCC(C)CO3 (mixture of isomers) [I-c-48]
herbicidal effect against AVEFA (Avena fatua) [1]: 20% | herbicidal effect against SETVI (Setaria viridis) (Setaria viridis): 80% | herbicidal effect against ALOMY (Alopecurus myosuroides) (Alopecurus myosuroides): 20% | herbicidal effect against ECHCG (Echinochloa crus-galli) (Echinocloa crus-galli): 90% | herbicidal effect against LOLMU (Lolium multiflorum) (Lolium multiflorum): 100%

Cc1cc(C)c(C2=C(OC(=O)OC(C)C)C3CC4(COC(C)(C)O4)CC3C2=O)c(C)c1 (mixture of isomers) [I-c-55]
herbicidal effect against AVEFA (Avena fatua) [1]: 20% | herbicidal effect against SETVI (Setaria viridis) (Setaria viridis): 30% | herbicidal effect against ALOMY (Alopecurus myosuroides) (Alopecurus myosuroides): 80% | herbicidal effect against ECHCG (Echinochloa crus-galli) (Echinocloa crus-galli): 100% | herbicidal effect against LOLMU (Lolium multiflorum) (Lolium multiflorum): 100%

CCOC(=O)OC1=C(c2c(C)cc(C)cc2C)C(=O)C2CC3(CC12)OCCCO3 (racemic) [I-c-47]
herbicidal effect against AVEFA (Avena fatua) [1]: 90% | herbicidal effect against SETVI (Setaria viridis) (Setaria viridis): 60% | herbicidal effect against ALOMY (Alopecurus myosuroides) (Alopecurus myosuroides): 100% | herbicidal effect against ECHCG (Echinochloa crus-galli) (Echinocloa crus-galli): 100% | herbicidal effect against LOLMU (Lolium multiflorum) (Lolium multiflorum): 100%

COC(=O)OC1=C(c2c(C)cc(C)cc2C)C(=O)C2CC3(CC12)OCCCCO3 (racemic) [I-c-49]
herbicidal effect against AVEFA (Avena fatua) [1]: 80% | herbicidal effect against SETVI (Setaria viridis) (Setaria viridis): 80% | herbicidal effect against ALOMY (Alopecurus myosuroides) (Alopecurus myosuroides): 100% | herbicidal effect against ECHCG (Echinochloa crus-galli) (Echinocloa crus-galli): 90% | herbicidal effect against LOLMU (Lolium multiflorum) (Lolium multiflorum): 100%

COC(=O)OC1=C(c2c(C)cc(C)cc2C)C(=O)C2CC(=O)CC12 (racemic) [I-c-57]
herbicidal effect against AVEFA (Avena fatua) [1]: 0% | herbicidal effect against SETVI (Setaria viridis) (Setaria viridis): 90% | herbicidal effect against ALOMY (Alopecurus myosuroides) (Alopecurus myosuroides): 90% | herbicidal effect against ECHCG (Echinochloa crus-galli) (Echinocloa crus-galli): 100% | herbicidal effect against LOLMU (Lolium multiflorum) (Lolium multiflorum): 0%

CCOC(=O)OC1=C(c2c(C)cc(C)cc2C)C(=O)C2CC(=O)CC12 (racemic) [I-c-58]
herbicidal effect against AVEFA (Avena fatua) [1]: 0% | herbicidal effect against SETVI (Setaria viridis) (Setaria viridis): 100% | herbicidal effect against ALOMY (Alopecurus myosuroides) (Alopecurus myosuroides): 0% | herbicidal effect against ECHCG (Echinochloa crus-galli) (Echinocloa crus-galli): 100% | herbicidal effect against LOLMU (Lolium multiflorum) (Lolium multiflorum): 0%

C#CCON=C1CC2C(=O)C(c3c(C)cc(C)cc3C)=C(OC(=O)OC)C2C1 (racemic) [I-c-59]
herbicidal effect against AVEFA (Avena fatua) [1]: 0% | herbicidal effect against SETVI (Setaria viridis) (Setaria viridis): 20% | herbicidal effect against ALOMY (Alopecurus myosuroides) (Alopecurus myosuroides): 0% | herbicidal effect against ECHCG (Echinochloa crus-galli) (Echinocloa crus-galli): 100% | herbicidal effect against LOLMU (Lolium multiflorum) (Lolium multiflorum): 60%

C#CCON=C1CC2C(=O)C(c3c(C)cc(C)cc3C)=C(OC(=O)OCC)C2C1 (racemic) [I-c-60]
herbicidal effect against AVEFA (Avena fatua) [1]: 0% | herbicidal effect against SETVI (Setaria viridis) (Setaria viridis): 0% | herbicidal effect against ALOMY (Alopecurus myosuroides) (Alopecurus myosuroides): 20% | herbicidal effect against ECHCG (Echinochloa crus-galli) (Echinocloa crus-galli): 100% | herbicidal effect against LOLMU (Lolium multiflorum) (Lolium multiflorum): 80%

CCc1cc(C)cc(CC)c1C1=C(O)[C@H]2CC3(C[C@H]2C1=O)SCCS3 (relative stereo) [I-a-16]
herbicidal effect against AVEFA (Avena fatua) [1]: 30% | herbicidal effect against SETVI (Setaria viridis) (Setaria viridis): 80% | herbicidal effect against ALOMY (Alopecurus myosuroides) (Alopecurus myosuroides): 30% | herbicidal effect against ECHCG (Echinochloa crus-galli) (Echinocloa crus-galli): 90% | herbicidal effect against LOLMU (Lolium multiflorum) (Lolium multiflorum): 80%

CCc1cc(C)cc(CC)c1C1=C(O)[C@H]2CC3(C[C@H]2C1=O)SCCCS3 (relative stereo) [I-a-17]
herbicidal effect against AVEFA (Avena fatua) [1]: 40% | herbicidal effect against SETVI (Setaria viridis) (Setaria viridis): 80% | herbicidal effect against ALOMY (Alopecurus myosuroides) (Alopecurus myosuroides): 30% | herbicidal effect against ECHCG (Echinochloa crus-galli) (Echinocloa crus-galli): 90% | herbicidal effect against LOLMU (Lolium multiflorum) (Lolium multiflorum): 90%

C#CCON=C1C[C@@H]2C(O)=C(c3c(CC)cc(C)cc3CC)C(=O)[C@@H]2C1 (relative stereo) [I-a-33]
herbicidal effect against AVEFA (Avena fatua) [1]: 0% | herbicidal effect against SETVI (Setaria viridis) (Setaria viridis): 90% | herbicidal effect against ALOMY (Alopecurus myosuroides) (Alopecurus myosuroides): 100% | herbicidal effect against ECHCG (Echinochloa crus-galli) (Echinocloa crus-galli): 100% | herbicidal effect against LOLMU (Lolium multiflorum) (Lolium multiflorum): 100%

Cc1cc(C)c(C2=C(O)[C@H]3CC4(C[C@H]3C2=O)OCCCO4)c(C)c1 (relative stereo) [I-a-37]
herbicidal effect against AVEFA (Avena fatua) [1]: 90% | herbicidal effect against SETVI (Setaria viridis) (Setaria viridis): 60% | herbicidal effect against ALOMY (Alopecurus myosuroides) (Alopecurus myosuroides): 60% | herbicidal effect against ECHCG (Echinochloa crus-galli) (Echinocloa crus-galli): 100% | herbicidal effect against LOLMU (Lolium multiflorum) (Lolium multiflorum): 100%

CCOC(=O)OC1=C(c2c(CC)cc(C)cc2CC)C(=O)[C@@H]2CC3(C[C@H]12)SCCS3 (relative stereo) [I-c-15]
herbicidal effect against AVEFA (Avena fatua) [1]: 60% | herbicidal effect against SETVI (Setaria viridis) (Setaria viridis): 90% | herbicidal effect against ALOMY (Alopecurus myosuroides) (Alopecurus myosuroides): 90% | herbicidal effect against ECHCG (Echinochloa crus-galli) (Echinocloa crus-galli): 90% | herbicidal effect against LOLMU (Lolium multiflorum) (Lolium multiflorum): 90%

CCc1cc(C)cc(CC)c1C1=C(O)[C@H]2CC(=O)C[C@H]2C1=O (stereo in doubt) [I-a-4, 2-(2,6-diethyl-4-methylphenyl)-3-hydroxy-3a,4,6,6a-tetrahydropentalene-1,5-dione]
pest or weed control at 80 g/ha [1]: 30% | pest or weed control at 80 g/ha (Setaria viridis): 100% | pest or weed control at 80 g/ha (Alopecurus myosuroides): 60% | pest or weed control at 80 g/ha (Echinocloa crus-galli): 100% | pest or weed control at 80 g/ha (Lolium multiflorum): 20%

CCc1cc(C)cc(CC)c1C1C(=O)[C@H]2C/C(=N\OC)C[C@H]2C1=O (stereo partly drawn) [I-a-18]
pest or weed control at 80 g/ha [1]: 60% | pest or weed control at 80 g/ha (Setaria viridis): 90% | pest or weed control at 80 g/ha (Alopecurus myosuroides): 90% | pest or weed control at 80 g/ha (Echinocloa crus-galli): 100% | pest or weed control at 80 g/ha (Lolium multiflorum): 100%

C#CCON=C1CC2C(=O)C(c3c(C)cc(C)cc3C)=C(O)C2C1 (stereo not drawn) [I-a-43]
herbicidal effect against AVEFA (Avena fatua) [1]: 0% | herbicidal effect against SETVI (Setaria viridis) (Setaria viridis): 40% | herbicidal effect against ALOMY (Alopecurus myosuroides) (Alopecurus myosuroides): 20% | herbicidal effect against ECHCG (Echinochloa crus-galli) (Echinocloa crus-galli): 90% | herbicidal effect against LOLMU (Lolium multiflorum) (Lolium multiflorum): 40%

CON=C1CC2C(=O)C(c3c(C)cc(C)cc3C)=C(O)C2C1 (stereo not drawn) [I-a-44]
herbicidal effect against AVEFA (Avena fatua) [1]: 0% | herbicidal effect against SETVI (Setaria viridis) (Setaria viridis): 80% | herbicidal effect against ALOMY (Alopecurus myosuroides) (Alopecurus myosuroides): 20% | herbicidal effect against ECHCG (Echinochloa crus-galli) (Echinocloa crus-galli): 100% | herbicidal effect against LOLMU (Lolium multiflorum) (Lolium multiflorum): 20%
